Here are results for six compounds from patent publication US20200216416A1, “QUINOLINE COMPOUNDS AS INHIBITORS OF TAM AND MET KINASES” (Array BioPharma Inc., priority 2019, published 2020).

Assay [1] has as its target T1, His-tagged recombinant human MER cytoplasmic domain (Homo sapiens, UniProt Q12866).
T1 construct: His-tagged recombinant human MER cytoplasmic domain
T1 sequence (Q12866 527-999 limits assumed): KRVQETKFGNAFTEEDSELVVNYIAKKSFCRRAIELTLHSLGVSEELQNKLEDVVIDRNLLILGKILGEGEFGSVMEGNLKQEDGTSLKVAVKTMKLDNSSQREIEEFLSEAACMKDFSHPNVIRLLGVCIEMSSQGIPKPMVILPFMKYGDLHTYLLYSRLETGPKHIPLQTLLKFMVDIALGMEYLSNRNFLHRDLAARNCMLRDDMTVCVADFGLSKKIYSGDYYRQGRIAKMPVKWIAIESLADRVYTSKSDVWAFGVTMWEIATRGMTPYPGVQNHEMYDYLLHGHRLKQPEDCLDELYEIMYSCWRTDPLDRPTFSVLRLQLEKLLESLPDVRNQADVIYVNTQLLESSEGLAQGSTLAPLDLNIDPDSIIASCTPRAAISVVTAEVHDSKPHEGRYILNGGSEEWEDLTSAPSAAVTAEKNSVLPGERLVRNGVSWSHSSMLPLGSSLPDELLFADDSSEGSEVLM
Briefly: MER Enzyme Assay (LanthaScreen Eu Kinase Binding). Conditions: averaged IC50; MER 5 nM; 60-minute incubation at 22° C.; TR-FRET. The procedure, abridged: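 TR-FRET binding: 5 nM His-MER cytoplasmic domain with 20 nM Tracer 236, 2 nM biotin-anti-His and 2 nM Eu-streptavidin in pH 7.4 HEPES, 10 mM MgCl2, 2% DMSO, with threefold compound dilutions, 60 min at 22 °C. Percent of control was fit to a 4-parameter logistic, and IC50 was taken at 50 POC.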

For assay [2], the target named is T2, human MET kinase D1228H (Homo sapiens, UniProt P08581, D1228H).
T2 construct: GST-tagged recombinant human MET kinase domain; purchased Signal Chem
T2 sequence (P08581 1078-1345 D1228H): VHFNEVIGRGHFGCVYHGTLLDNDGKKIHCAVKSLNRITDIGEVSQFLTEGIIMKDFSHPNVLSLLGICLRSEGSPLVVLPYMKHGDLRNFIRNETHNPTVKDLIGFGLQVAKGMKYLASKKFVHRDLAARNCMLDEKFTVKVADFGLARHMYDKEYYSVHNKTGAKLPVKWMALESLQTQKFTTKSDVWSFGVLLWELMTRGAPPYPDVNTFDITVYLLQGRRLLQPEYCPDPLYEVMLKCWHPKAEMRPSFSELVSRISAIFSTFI
Briefly: c-Met Enzyme Assay, D1228H mutant. The format is binding. Conditions: averaged IC50; D1228H 2 nM; 60-minute incubation at 22° C.; read-out: D1228 H IC50. The procedure, abridged: (§1)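 LanthaScreen Eu TR-FRET binding: GST-tagged recombinant MET kinase domain incubated with compound, 50 nM Alexa-Fluor Tracer 236 and 2 nM Eu-anti-GST in 25 mM HEPES pH 7.4, 10 mM MgCl2, 1 mM DTT, 2% DMSO, 60 min at 22 °C. Ratiometric emission gave percent of control; IC50 from 4-parameter fit at 50 POC.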

Assay [3] addresses T3, human MET kinase F1200I (Homo sapiens, UniProt P08581, F1200I).
T3 construct: GST-tagged recombinant human MET kinase domain; purchased Signal Chem
Briefly: c-Met Enzyme Assay, F1200I mutant. In kind it is binding. The settings on record: averaged IC50; F1200I 2 nM; 60-minute incubation at 22° C. The procedure, abridged: as §1

Assay [4] addresses T4, human MET kinase L1195V (Homo sapiens, UniProt P08581, L1195V).
T4 construct: GST-tagged recombinant human MET kinase domain; purchased Signal Chem
Briefly: c-Met Enzyme Assay, L1195V mutant. The format is binding. Conditions: averaged IC50; L1195V 10 nM; 60-minute incubation at 22° C. The procedure, abridged: as §1

For assay [5], the target named is T5, human MET kinase Y1230C (Homo sapiens, UniProt P08581, Y1230C).
T5 construct: GST-tagged recombinant human MET kinase domain; purchased Signal Chem
T5 sequence (P08581 1078-1345 Y1230C): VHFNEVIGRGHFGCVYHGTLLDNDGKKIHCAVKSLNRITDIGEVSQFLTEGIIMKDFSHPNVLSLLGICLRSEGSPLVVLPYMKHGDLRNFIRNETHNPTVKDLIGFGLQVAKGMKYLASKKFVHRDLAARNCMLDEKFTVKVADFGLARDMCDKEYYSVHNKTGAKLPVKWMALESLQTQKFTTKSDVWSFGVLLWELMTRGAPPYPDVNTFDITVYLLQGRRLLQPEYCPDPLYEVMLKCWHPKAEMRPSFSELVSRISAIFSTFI
Briefly: c-Met Enzyme Assay, Y1230C mutant. The format is binding. The settings on record: averaged IC50; Y1230C 2 nM; 60-minute incubation at 22° C.; read-out: Y1230 C IC50. A digest of the protocol: as §1

The target in assay [6] is T6, human MET kinase Y1230S (Homo sapiens, UniProt P08581, Y1230S).
T6 construct: GST-tagged recombinant human MET kinase domain; purchased Signal Chem
T6 sequence (P08581 1078-1345 Y1230S): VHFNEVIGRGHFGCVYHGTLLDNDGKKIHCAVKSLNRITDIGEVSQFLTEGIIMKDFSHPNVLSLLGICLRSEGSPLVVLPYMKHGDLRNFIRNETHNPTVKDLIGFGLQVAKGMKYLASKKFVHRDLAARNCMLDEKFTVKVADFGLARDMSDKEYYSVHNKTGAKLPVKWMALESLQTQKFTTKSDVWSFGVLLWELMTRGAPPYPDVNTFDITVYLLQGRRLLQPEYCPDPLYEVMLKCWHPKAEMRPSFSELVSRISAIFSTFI
Briefly: c-Met Enzyme Assay, Y1230S mutant. In kind it is binding. Conditions: averaged IC50; Y1230S 8 nM; 60-minute incubation at 22° C.; read-out: Y1230 S IC50. The procedure, abridged: as §1

For assay [7], the target named is T7, human MET kinase D1228N (Homo sapiens, UniProt P08581, D1228N).
T7 construct: GST-tagged recombinant human MET kinase domain; purchased Signal Chem
T7 sequence (P08581 1078-1345 D1228N): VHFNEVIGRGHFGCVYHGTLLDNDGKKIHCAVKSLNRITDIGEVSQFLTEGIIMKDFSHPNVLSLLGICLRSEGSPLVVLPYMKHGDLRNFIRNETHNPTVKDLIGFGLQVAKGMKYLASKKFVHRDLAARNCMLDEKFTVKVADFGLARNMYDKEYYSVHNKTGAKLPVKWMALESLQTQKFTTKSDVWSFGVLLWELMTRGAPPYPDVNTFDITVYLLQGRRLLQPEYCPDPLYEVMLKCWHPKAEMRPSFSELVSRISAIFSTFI
Briefly: c-Met Enzyme Assay, D1228N mutant. The format is binding. The settings on record: averaged IC50; D1228N 2 nM; 60-minute incubation at 22° C.; read-out: D1228 N IC50. A digest of the protocol:
as §1

The target of assay [8] is T8, human MET kinase Y1230H (Homo sapiens, UniProt P08581, Y1230H).
T8 construct: GST-tagged recombinant human MET kinase domain; purchased Signal Chem
T8 sequence (P08581 1078-1345 Y1230H): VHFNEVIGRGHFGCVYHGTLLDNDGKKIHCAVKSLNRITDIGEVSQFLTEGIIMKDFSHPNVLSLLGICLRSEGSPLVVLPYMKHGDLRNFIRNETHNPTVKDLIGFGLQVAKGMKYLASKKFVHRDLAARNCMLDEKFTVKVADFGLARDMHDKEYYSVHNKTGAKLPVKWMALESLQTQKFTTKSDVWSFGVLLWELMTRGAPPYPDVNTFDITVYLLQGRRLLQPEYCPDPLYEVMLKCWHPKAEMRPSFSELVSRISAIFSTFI
Briefly: c-Met Enzyme Assay, Y1230H mutant. The format is binding. The settings on record: averaged IC50; Y1230H 5 nM; 60-minute incubation at 22° C.; read-out: Y1230 H IC50. A digest of the protocol: as §1

T3 sequence (P08581 1078-1345 F1200I limits assumed): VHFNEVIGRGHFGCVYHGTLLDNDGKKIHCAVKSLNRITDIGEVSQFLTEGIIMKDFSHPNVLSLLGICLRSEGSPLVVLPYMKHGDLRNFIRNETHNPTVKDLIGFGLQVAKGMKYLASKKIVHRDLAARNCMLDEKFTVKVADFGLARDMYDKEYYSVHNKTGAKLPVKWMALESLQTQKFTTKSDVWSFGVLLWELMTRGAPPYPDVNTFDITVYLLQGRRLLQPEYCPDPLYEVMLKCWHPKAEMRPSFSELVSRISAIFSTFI
T4 sequence (P08581 1078-1345 L1195V limits assumed): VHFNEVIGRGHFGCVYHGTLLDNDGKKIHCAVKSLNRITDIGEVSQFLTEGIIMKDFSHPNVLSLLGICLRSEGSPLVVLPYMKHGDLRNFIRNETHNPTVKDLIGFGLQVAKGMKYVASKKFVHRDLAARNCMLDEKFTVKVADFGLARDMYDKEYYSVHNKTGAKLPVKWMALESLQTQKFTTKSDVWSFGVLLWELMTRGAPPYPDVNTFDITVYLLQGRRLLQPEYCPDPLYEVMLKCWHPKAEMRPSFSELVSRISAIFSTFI

For `CCOc1ccc2nccc(Oc3ccc(NC(=O)c4cn(C(C)C)cc(-c5ccc(F)cc5)c4=O)nc3)c2c1` [Example 51, N-(5-((6-ethoxyquinolin-4-yl)oxy)pyridin-2-yl)-5-(4-fluorophenyl)-1-isopropyl-4-oxo-1,4-dihydropyridine-3-carboxamide], the IC50 (usually the concentration at which inhibition is half-maximal) in assay [1] is 14 nM; in assay [2], 59.5 nM; in assay [3], 35 nM; in assay [4], 495 nM; in assay [5], 61.8 nM; in assay [6], 44 nM. Moreover, the values for the 50% inhibitory concentration (IC50) in assay [7] and in assay [8] were 178 nM and 200 nM, respectively.
For `CCCC(CCC)n1cc(C(=O)Nc2ccc(Oc3ccnc4cc(OC)c(OC)cc34)cn2)c(=O)c(-c2ccc(F)cc2F)c1` [Example 17, 5-(2,4-difluorophenyl)-N-(5-((6,7-dimethoxyquinolin-4yl)oxy)pyridin-2-yl)-1-(heptan-4-yl)-4-oxo-1,4-dihydropyridine-3-carboxamide], the IC50 was 52 nM in assay [1]; 13.3 nM in assay [2]; 23.4 nM in assay [3]; 82.6 nM in assay [4]; 15.5 nM in assay [5]; 11.4 nM in assay [6]. The values for the IC50 in assay [7] and in assay [8] were 25 nM and 26.9 nM, respectively.
`COc1cc2nccc(Oc3ccc(NC(=O)c4cn(CC(=O)N5CCCC5)cc(-c5ccc(F)cc5F)c4=O)nc3)c2cc1OC` [Example 14]: the IC50 in assay [1] was found to be 12 nM; in assay [2], 35.4 nM; in assay [3], 12.4 nM; in assay [4], 187 nM; in assay [5], 5.5 nM; in assay [6] it was 16.3 nM. Also, the IC50 was 30.6 nM in assay [7] and 22.3 nM in assay [8].
For the compound `COc1cc2nccc(Oc3ccc(NC(=O)c4cn(CC(=O)N(C)C)cc(-c5ccc(F)cc5F)c4=O)nc3)c2cc1OC` [Example 13, 5-(2,4-difluorophenyl)-N-(5((6,7-dimethoxyquinolin-4-yl)oxy)pyridin-2-yl)-1-(2-(dimethylamino)-2-oxoethyl)-4-oxo-1,4-dihydropyridine-3-carboxamide], the IC50 in assay [1] was found to be 5 nM; in assay [2] it was 4.4 nM; in assay [3], 4.8 nM; in assay [4], 83.8 nM; in assay [5], 3.3 nM; in assay [6], 6 nM. For the same compound, the figures for the 50% inhibitory concentration (IC50) in assay [7] and in assay [8] were 11.6 nM and 5.7 nM, respectively.
`COc1cc2nccc(Oc3ccc(NC(=O)c4cn(C(C)C)cc(-c5ccc(F)c(Cl)c5)c4=O)nc3)c2cc1OC` [Example 21, 5-(3-chloro-4-fluorophenyl)-N-(5-((6,7-dimethoxyquinolin-4-yl)oxy)pyridin-2-yl)-1-isopropyl-4-oxo-1,4-dihydropyridine-3-carboxamide]: the IC50 in assay [1] was found to be 10 nM; in assay [2] it was 18.7 nM; in assay [3] it was 16.2 nM; in assay [4] it was 77.7 nM; in assay [5] it was 20.4 nM; in assay [6], 29.2 nM. The 50% inhibitory concentration (IC50) worked out at 31 nM in assay [7] and 51.3 nM in assay [8].
Consider `CCCn1cc(C(=O)Nc2ccc(Oc3ccnc4cc(OC)c(OC)cc34)cn2)c(=O)c(-c2ccc(F)cc2)c1` [Example 10, N-(5((6,7-dimethoxyquinolin-4-yl)oxy)pyridin-2-yl)-5-(4-fluorophenyl)-4-oxo-1-propyl-1,4-dihydropyridine-3-carboxamide], for which the IC50 in assay [1] turned out to be 8 nM; in assay [2] it was 3.7 nM; in assay [3], 4.2 nM; in assay [4] it was 9.7 nM; in assay [5], 3.1 nM; in assay [6], 2.8 nM. Moreover, the half-maximal inhibitory concentration (IC50) worked out at 4.1 nM in assay [7] and 6.1 nM in assay [8].
